Assay results reported in patent US20250134867A1, “METHOD FOR MODULATING LIPID METABOLISM, AMELIORATING NON-ALCOHOLIC FATTY LIVER DISEASE AND METABOLIC SYNDROME BY USING 6-METHOXYBENZOXAZOLINONE” (Taichung District Agricultural Research and Extension …, priority 2023, published 2025).

Assays:
Type in all cases: cell-based, human
[1] = system: carnitine palmitoyl-transferase 1 (CPT1); experiment: Western blot analysis, CPT1 expression in OA-induced HuS-E/2 cells; settings: CX at 50-400 μM, 0.1 mM OA-induced HuS-E/2 cells
From the text: (§1) The procedure regarding Western blot analysis is as follows. For western blot analysis, an equal amount of protein from each sample was resolved by sodium dodecyl sulfate polyacrylamide gel electrophoresis (SDS-PAGE) and then transferred to polyvinylidene fluoride (PVDF) membranes. Primary antibodies against AMPK (Cat. GTX103487), adipose triglyceride lipase (ATGL) (Cat. GTX109941), carnitine palmitoyl-transferase 1 (CPT1) (Cat. GTX114337), and β-actin (Cat. GTX109639) were from GeneTex (Taiwan), and those against pAMPK (Cat. AP0432), phospho acetyl-CoA carboxylase (pACC) (Cat. AP0298), ACC (Cat. A15606), and fatty acid synthase (FAS) (Cat. A21182) was from ABclonal (China). Horseradish peroxidase (HRP)-conjugated secondary antibodies were from Jackson ImmunoResearch Laboratories, Inc., USA. WesternBright® ECL kits (Advansta Inc., USA) were used for protein visualization. Levels of protein expression were quantified by densitometric analyses.

[2] = system: acetyl-CoA carboxylase (ACC1); experiment: Western blot analysis, ACC1 phosphorylation in OA-induced HuS-E/2 cells; settings: CX at 50-400 μM, 0.1 mM OA-induced HuS-E/2 cells
From the text: as §1

[3] = system: fatty acid synthase (FAS); experiment: Western blot analysis, FAS expression in OA-induced HuS-E/2 cells; settings: CX at 100-400 μM, 0.1 mM OA-induced HuS-E/2 cells
From the text: as §1

[4] = system: HuS-E/2 cells; experiment: MTT cell viability / cytotoxicity assay; settings: 24 h
Experimental: To determine the cytotoxicity of CX, HuS-E/2 cells were incubated with CX at the concentrations indicated for 24 hours. The CX stock solution was 200 mM in dimethyl sulfoxide (DMSO; Cat. 15578544, J. T. Baker, USA), and stored at −20° C.
The procedure regarding cell culture of immortalized primary human hepatocytes HuS-E/2 cells is as follows. HuS-E/2 cell line, kindly provided by Dr. Shimotohno (Kyoto University, Japan), were maintained in primary hepatocyte medium (PH medium), containing 20 mM HEPES, 10% fetal bovine serum, 15 μg/mL L-proline, 0.25 μg/mL insulin, 50 nM dexamethasone, 44 mM NaHCO3, 10 mM nicotinamide, 5 ng/ml EGF, 0.1 mM Asc-2P, 100 IU/mL penicillin, 100 μg/mL streptomycin, 10 μg/mL gentamicin, and 1 μg/mL plasmocin in high-glucose Dulbeco's modified Eagle medium (DMEM). Cells were incubated at 37° C. in an incubator supplied with 5% CO2.
3-(4,5-dimethylthiazol-2-yl)-2,5-diphenyltetrazolium bromide (MTT) (Cat. M5655) (Sigma-Aldrich, USA) stock solution was 5 mg/mL in 1×phosphate-buffered saline (PBS), and stored at −20° C.
The procedure regarding cell viability is as follows. HuS-E/2 cells were seeded at 4.5×10^4 cells/well in a 96-well plate and were incubated with 0-1600 μM CX for 24 h. MTT was added to each well to a final concentration of […] and was incubated at 37° C. for an hour before removal. MTT-formazan crystals formed by metabolically viable cells were dissolved in 200 μL of DMSO for absorbance detection at 550 nm using a SPARK® Multimode microplate reader from TECAN, Switzerland. The 50% cytotoxic concentration (CC50) was calculated using the normalized response (variable slope) model given in GraphPad Prism 7.03 (USA).

[5] = system: OA-induced HuS-E/2 cells; experiment: Oil Red O staining of lipid accumulation in oleic acid (OA)-induced cells; settings: 0.1 mM OA, 18 h
Experimental: To evaluate the effect of CX on lipid accumulation, HuS-E/2 cells were incubated with or without 0.1 mM OA (Cat. O1383) in the presence or absence of CX for 18 hours. The OA stock solution was 3.15 M in DMSO, and stored at −20° C.
The procedure regarding oil red O staining is as follows. Oil Red O stain (Cat. O0625) were from Sigma-Aldrich, USA. The Oil Red O stain stock solution was 3 mg/mL in isopropanol, and stored at room temperature. For microscopic observation, cells were fixed in 4% paraformaldehyde in phosphate-buffered saline (PBS) for 30 min at room temperature, stained with Oil Red O stain working solution (60% Oil Red O stock solution and 40% distilled water) for 1 h at room temperature, and then rinsed with water. Micrographs were captured under a microscope. For quantitative analysis of cellular lipids, cells were washed three times with ice-cold PBS, fixed with 10% formalin for 1 h, washed, stained with Oil Red O solution for 1 h at room temperature, and washed with water to remove excess dye. Cell-bound Oil Red O stain was dissolved in isopropanol at room temperature for 5 min with shaking. The absorbance at 510 nm was measured in a spectrophotometer. The relative lipid content is calculated by setting the readouts of those receiving vehicles to 0% and those receiving free fatty acids alone to 100%.

COc1ccc2[nH]c(=O)oc2c1 [CX, 6-methoxybenzoxazolinone]
CPT1 levels [1]: elevated CPT1 levels | ACC1 phosphorylation [2]: increasing ACC1 phosphorylation | FAS expression [3]: downregulated FAS expression | effect on the viability of HuS-E/2 cells ([4]; CX at 25-400 μM, MTT): no significant effect | cytotoxicity in HuS-E/2 cells ([4]; CX at up to 400 μM): did not inflict cytotoxicity | CC50 ([4]; HuS-E/2 cells, MTT, n=3, mean±SEM, read-out: CC50 (50% cytotoxic concentration)): 1430 ± 170 µM | lipid accumulation (micrographs, Oil Red O) ([5]; FIG. 2A): reduced lipid accumulation in a dose-dependent manner | lipid content (Oil Red O, absorbance 510 nm) ([5]; FIG. 2B): diminished the lipid content
